The results in this text go back to patent US20240277743A1, “RESTORING PHYSIOLOGY WITH SMALL MOLECULE MIMICS OF MISSING PROTEINS” (The Board of Trustees Of The University Of Illinois, priority 2014, published 2024).

One test relates to trk1Δtrk2Δ cells. The test is described as follows: 86Rb+ uptake assay. The format is cell-based, Saccharomyces cerevisiae. The settings on record: 3 μM; FIG. 2F. As to the method: ^86Rb^+ uptake assay. The procedure for 86Rb uptake was adapted from Mulet, J. M. et al. Mol. Cell. Biol. 19, 3328-3337 (1999). Overnight yeast cultures were grown as described above. The supernatant was poured off, and the cells were resuspended in sterile water. This wash was repeated two more times. The cells were then resuspended in 40 mL of the potassium starvation/uptake buffer (50 mM succinic acid, 2% glucose, adjusted to pH 5.5 with Tris). After 3 hour incubation in the potassium starvation buffer, cells were centrifuged and washed twice with sterile water. Cells were resuspended in 1 mL of the potassium starvation/uptake buffer. Cell concentration was determined using an INCYTO®; Neubauer disposable hemocytometer, and wild type S. cerevisiae and trk1Δtrk2Δ cells were diluted to the same cell density. 700 μL of the yeast suspension was added to a 1.5 mL Eppendorf tube. After a 5 minute pre-incubation in the potassium starvation/uptake medium, AmB or C35deOAmB was added (final concentration 3 μM) as a DMSO solution. ^86RbCl (1.1 μCi) was then added to the reaction mixtures. Reaction mixtures were vortexed to ensure a homogeneous solution. […] Moist filters were transferred to plastic vials for measuring radioactivity. Radioactivity was monitored using a Perkin Elmer Wizard automatic gamma counter. […]

Test [1] deals with CuFi-1 epithelial monolayers (CFTR-deficient human lung epithelia). The test is described as follows: Airway surface liquid (ASL) height studies by confocal fluorescence microscopy. The format is cell-based. The method, then:
Human cell lines and growth conditions. NuLi and CuFi-1 cells were cultured at the air-liquid interface as previously described, using a 1:1 mixture of DMEM: Ham's F-12 supplemented with 2% v/v Ultroser G (Crescent Chemical). Zabner, J. et al. Am. J. Physiol. Lung Cell. Mol. Physiol. 284, […]-[…] (2003). The membrane supports used were Millicell 0.4 μm PCF inserts (Millipore PIHP01250) for Ussing chamber studies, Corning Costar 0.4 μm Transwell Clear Polyester Membrane inserts (Corning 3470) for rotational mucus transport studies, and Millicell 1.0 μm PCF inserts (Millipore PIRP15R48) for ASL studies. These membranes were allowed to mature at an air-liquid interface for a minimum of 14 days to reach full differentiation. Airway surface liquid (ASL) height studies. ASL height was studied using an established fluorescent dye assay. Worthington, E. N. et al. Methods Mol. Biol. 742, 77-92 (2011); Myerburg. M. M. et al. Am. J. Respir. Cell. Mol. Biol. 42, 676-684 (2010). Mature, differentiated membranes were grown on Millicell […] polyethylene terephthalate hanging cell culture inserts. Wild type (NuLi) lung epithelia were treated with perfluorocarbon (FC-72) vehicle, and CuFi epithelia were treated with vehicle or 500 nM AmB and incubated for 24 hours at 37° ° C. On the day of imaging. 2.5 μL of a 70 kDa Texas Red-dextran conjugate (Molecular Probes) solution in PBS was added to the apical side of the membranes, followed by 100 μL of FC-770 to prevent evaporation. These were placed on 100 μL of PBS on a 10 mm glass bottom Fluorodish for imaging (World Precision Instruments). Membranes were imaged immediately after dye addition and again at 24 hours to examine dye absorption. Three Z-stack images per membrane in biological n=6 were taken on an Zeiss LSM700 confocal microscope at 40× oil immersion. These images were analyzed using ImageJ to determine the area of fluorescence in the left hand 200-micron width of each image. Images were converted to 8-bit, Gaussian Blur was applied, and made binary. The parameters for Analyze Particles were particles from 1-Infinity μm^2 in size and from 0%-100% circularity.

The subject of another test is trk1Δtrk2Δ S. cerevisiae. The test is described as follows: Growth of trk1Δtrk2Δ yeast on normal potassium YPAD agar plates containing AmB. The format is cell-based, Saccharomyces cerevisiae. The settings on record: 125 nM in agar, normal potassium (10 mM). The method, then: Yeast cell lines and growth conditions. Wild type S. cerevisiae (ATCC 9763), and trk1Δtrk2Δ S. cerevisiae (SGY 1528) were maintained with yeast peptone adenine dextrose (YPAD) growth media consisting of 10 g/L yeast extract, 20 g/L peptone, 20 g/L dextrose, 0.015 g/L adenine hemisulfate salt (final potassium concentration=10 mM). For solid media, 20 g/L agar was added to this same mixture. To culture trk1 Δtrk2Δ S. cerevisiae, additional potassium was added as potassium chloride (100 mM KCl). The media was adjusted to pH 5.0 using citric acid. After autoclave sterilization, dextrose was subsequently added as a sterile 20% w/v solution in water (dextrose solutions were filter-sterilized using a 0.22 μm filter). Liquid cultures were incubated at 30° C. on a rotary shaker (200 rpm). Solid cultures were maintained at 30° C. in an incubator. For solid media containing AmB (AK Scientific), the media was allowed to cool for 15 minutes before addition of AmB at a final concentration of 125 nM. AmB was added to the media as a solution in DMSO. Plates were examined for growth after 24-48 hours of incubation.

As to `C[C@@H]1[C@H](O)[C@@H](C)/C=C/C=C/C=C/C=C/C=C/C=C/C=C/[C@H](O[C@@H]2O[C@H](C)[C@@H](O)[C@H](N)[C@@H]2O)C[C@@H]2O[C@](O)(C[C@@H](O)C[C@@H](O)[C@H](O)CC[C@@H](O)C[C@@H](O)CC(=O)O[C@H]1C)C[C@H](O)[C@H]2C(=O)O` [AmB, amphotericin B], in the test with trk1Δtrk2Δ cells, the “86Rb+ uptake in trk1Δtrk2Δ cells” value is reported as “uptake was restored”. Moreover, the “apical surface liquid (ASL) volume of CF epithelia” value in test [1] (500 nM) was “normal ASL volume was restored”. In addition, in test [1] (500 nM AmB, 24 hours, FIGS. 5A, 5B), the “ASL height of CuFi-1 epithelia, compound added apically” value was “normal ASL height was restored”. Moreover, in test [1] (CuFi-1 epithelia, FIG. 5C), the “dose dependence of ASL restoration” value is given as “dose-dependent fashion” and the “optimal dose for ASL restoration” value was 0.5 µM. For the same compound, the “ASL height of CuFi-1 epithelia, compound added to the basolateral surface” value in test [1] (FIG. 5B) is given as “no increase in ASL height”. In addition, the “restoration of growth of the trk1Δtrk2Δ mutant on agar plate” value in the test with trk1Δtrk2Δ S. cerevisiae is reported as “restored vigorous growth”.
